Results from ChEMBL document CHEMBL1201862, “PubChem BioAssay data set” (2004).
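Grown in 96-well plates, cells were treated for 48 hours with each compound at five concentrations. Insufficient inhibition: endpoint recorded as highest concentration tested. The concentration for 50% growth inhibition is given as GI50.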 Active and inactive are the calls of the source. Cut-off read from the data, not from the text of the source: active = GI50 up to about 1.1 µM and inactive = higher.

Key:
Experiment in all cases: inhibition of tumour cell growth, NCI panel, 48 h
A498 = system: A498
EKVX = system: EKVX
HOP-62 = system: HOP-62
HOP-92 = system: HOP-92
M19-MEL = system: M19-MEL
MOLT-4 = system: MOLT-4
NCI-H226 = system: NCI-H226
NCI-H522 = system: NCI-H522
OVCAR-3 = system: OVCAR-3
OVCAR-4 = system: OVCAR-4
OVCAR-8 = system: OVCAR-8
SF-295 = system: SF-295
SNB-19 = system: SNB-19
SNB-75 = system: SNB-75
SR = system: SR
TK-10 = system: TK-10
UO-31 = system: UO-31
Hs-578T = system: Hs-578T
NCI/ADR-RES = system: NCI/ADR-RES
PC-3 = system: PC-3

Structure (SMILES)	GI50 (A498)	GI50 (EKVX)	GI50 (HOP-62)	GI50 (HOP-92)	GI50 (M19-MEL)	GI50 (MOLT-4)	GI50 (NCI-H226)	GI50 (NCI-H522)	GI50 (OVCAR-3)	GI50 (OVCAR-4)	GI50 (OVCAR-8)	GI50 (SF-295)	GI50 (SNB-19)	GI50 (SNB-75)	GI50 (SR)	GI50 (TK-10)	GI50 (UO-31)	GI50 (Hs-578T)	GI50 (NCI/ADR-RES)	GI50 (PC-3)
N#Cc1cccnc1Cl	> 100 µM (inactive)	> 100 µM (inactive)	> 31.6 µM (inactive)	> 100 µM (inactive)	> 100 µM (inactive)	> 100 µM (inactive)	> 100 µM (inactive)	> 100 µM (inactive)	> 100 µM (inactive)	> 100 µM (inactive)	> 100 µM (inactive)	> 100 µM (inactive)	> 100 µM (inactive)	> 76.6 µM (inactive)	> 100 µM (inactive)	> 100 µM (inactive)	> 100 µM (inactive)			
O=C(/C=C/c1ccccc1O)c1ccc([N+](=O)[O-])cc1	20.8 µM (inactive)	10.6 µM (inactive)	16.4 µM (inactive)	26.6 µM (inactive)	18.4 µM (inactive)	22.3 µM (inactive)	18 µM (inactive)	17.3 µM (inactive)	12.4 µM (inactive)	12 µM (inactive)	15.5 µM (inactive)	21.7 µM (inactive)	16.6 µM (inactive)	7.8 µM (inactive)	19.4 µM (inactive)	26.7 µM (inactive)	19.1 µM (inactive)			
NCCNC(=O)c1cccc2cc3ccccc3nc12	1.81 µM (inactive)	3.7 µM (inactive)	1.86 µM (inactive)	19.6 µM (inactive)	1.79 µM (inactive)	0.333 µM (active)	1.43 µM (inactive)	3.57 µM (inactive)	3.66 µM (inactive)	3.75 µM (inactive)	2.08 µM (inactive)	2.94 µM (inactive)	4.09 µM (inactive)	5.26 µM (inactive)	0.439 µM (active)	2.3 µM (inactive)	5.26 µM (inactive)			
CC(C)Cc1ccc(C(C)/C=C2\CCC(CN(C)C)C2=O)cc1 (centres undefined)	19.5 µM (inactive)	19.9 µM (inactive)	9.23 µM (inactive)	19 µM (inactive)	17.6 µM (inactive)	2.64 µM (inactive)	20.2 µM (inactive)	7.31 µM (inactive)	12.7 µM (inactive)	17 µM (inactive)	9.38 µM (inactive)	14.7 µM (inactive)	12.4 µM (inactive)	14.1 µM (inactive)	3.2 µM (inactive)	9.23 µM (inactive)	10.9 µM (inactive)	2.74 µM (inactive)	5.89 µM (inactive)	10.5 µM (inactive)
O=C(CCc1ccccc1)On1nnc2ccccc2c1=O	38.3 µM (inactive)	> 100 µM (inactive)	> 100 µM (inactive)	> 100 µM (inactive)	> 100 µM (inactive)	> 100 µM (inactive)	> 100 µM (inactive)	> 100 µM (inactive)	> 100 µM (inactive)	> 100 µM (inactive)	> 100 µM (inactive)	> 100 µM (inactive)	> 100 µM (inactive)	> 100 µM (inactive)	> 100 µM (inactive)	26.5 µM (inactive)	> 100 µM (inactive)			
CCOC(=O)C(=O)C=P(c1ccccc1)(c1ccccc1)c1ccccc1	> 100 µM (inactive)	> 100 µM (inactive)	> 100 µM (inactive)	> 100 µM (inactive)	> 100 µM (inactive)	> 100 µM (inactive)	> 100 µM (inactive)	> 100 µM (inactive)	> 100 µM (inactive)	> 100 µM (inactive)	> 100 µM (inactive)	> 100 µM (inactive)	> 100 µM (inactive)	> 100 µM (inactive)	> 100 µM (inactive)	> 100 µM (inactive)	> 100 µM (inactive)			
Cc1c(C(=O)/C=C/c2cccc3ccccc23)[n+]([O-])c2ccccc2[n+]1[O-]	16.9 µM (inactive)	14.1 µM (inactive)	15.8 µM (inactive)	10.1 µM (inactive)	11.9 µM (inactive)	11.5 µM (inactive)	14 µM (inactive)	5.9 µM (inactive)	10.7 µM (inactive)	4.47 µM (inactive)	11 µM (inactive)	16.1 µM (inactive)	15.7 µM (inactive)	13 µM (inactive)	12.7 µM (inactive)	20.3 µM (inactive)	17.3 µM (inactive)			
O=C1c2ccccc2C(=O)c2c1ccc(O)c2O [ATHRAQUINONES A]	39.5 µM (inactive)	26.9 µM (inactive)	> 100 µM (inactive)	38.6 µM (inactive)	72.4 µM (inactive)	32.4 µM (inactive)	94.8 µM (inactive)	39.4 µM (inactive)	32.9 µM (inactive)	32.1 µM (inactive)	31.3 µM (inactive)	57.3 µM (inactive)	61.2 µM (inactive)	28.2 µM (inactive)	34.8 µM (inactive)	> 100 µM (inactive)	36.6 µM (inactive)			
